{"source": "paper PMC6200766", "about": "“Fisetin targets YB-1/RSK axis independent of its effect on ERK signaling: insights from in vitro and in vivo melanoma models” (Scientific Reports, 2018)", "key": {"[1]": {"system": "YB-1", "test": "Western blot/immunocytochemistry of YB-1 in melanoma cells", "format": "cell-based, human", "from_the_text": "WM35 and A375 cells were obtained from ATCC (Manassas, VA), NCI/ADR-Res cells from NCI (Developmental Therapeutics Program, Frederick, MD) while 451Lu cells were provided by Dr. Meenhard Herlyn (Wistar Institute, PA). Authentication report was provided by ATCC and NCI for post-freeze viability, growth properties, morphology, mycoplasma contamination, species determination (cytochrome c oxidase I assay and STR analysis), sterility test and human pathogenic virus testing. Cells were frozen in aliquots in liquid nitrogen and cultured within six months. 451Lu cells were authenticated upon receipt using STR analysis and all cell lines are regularly tested for mycoplasma contamination using MycoAlert Mycoplasma Detection Kit from Lonza (Basel, Switzerland). WM35, A375 cells were cultured in DMEM, NCI/ADR-Res in RPMI and 451Lu in MEM with 10% FBS and 1% penicillin-streptomycin, at 37 °C with 5% CO2 in a humid environment. […]\nFor immunohistochemistry, sections from melanoma constructs, fixed in 10% formalin were deparaffinized and rehydrated in xylene and a graded series of ethanol and blocked in 2% goat serum/PBS for 30 min. After incubation with specific primary antibody overnight and biotinylated secondary antibody for 1 h, slides were counterstained with hematoxylin and immunoreactive complexes were detected using 3,3′-diaminobenzidene (Dako Corp., CA). […]"}, "[2]": {"system": "RSK", "test": "Western blot of RSK phosphorylation in A375 cells", "format": "cell-based, human", "settings": "fisetin 60 µM:24 h, FR180204 10 µM", "from_the_text": "WM35 and A375 cells were obtained from ATCC (Manassas, VA), NCI/ADR-Res cells from NCI (Developmental Therapeutics Program, Frederick, MD) while 451Lu cells were provided by Dr. Meenhard Herlyn (Wistar Institute, PA). Authentication report was provided by ATCC and NCI for post-freeze viability, growth properties, morphology, mycoplasma contamination, species determination (cytochrome c oxidase I assay and STR analysis), sterility test and human pathogenic virus testing. Cells were frozen in aliquots in liquid nitrogen and cultured within six months. 451Lu cells were authenticated upon receipt using STR analysis and all cell lines are regularly tested for mycoplasma contamination using MycoAlert Mycoplasma Detection Kit from Lonza (Basel, Switzerland). WM35, A375 cells were cultured in DMEM, NCI/ADR-Res in RPMI and 451Lu in MEM with 10% FBS and 1% penicillin-streptomycin, at 37 °C with 5% CO2 in a humid environment. After treatment of cells with/without fisetin and/or inhibitors, whole cell lysates were prepared and western blot analysis was performed as described elsewhere."}, "[3]": {"biological_target": "T1, RSK1 (Homo sapiens, UniProt Q15418)", "test": "biochemical", "experimental": "In vitro kinase activity profiling of RSK isoforms was performed at Reaction Biology Corporation (Malvern, PA). Briefly, the specific kinase/substrate pair alongwith required cofactors was prepared in reaction buffer."}, "[4]": {"biological_target": "T2, RSK2 binding to YB-1 (Homo sapiens, UniProt P51812)", "T2 construct": "recombinant human proteins [full length and HIS-tag]; (Life Technologies, Italy); His; purchased Life Technologies, Italy (RSK2); Abnova Corporation, Taiwan (YB-1)", "T2 sequence (P51812 whole entry)": "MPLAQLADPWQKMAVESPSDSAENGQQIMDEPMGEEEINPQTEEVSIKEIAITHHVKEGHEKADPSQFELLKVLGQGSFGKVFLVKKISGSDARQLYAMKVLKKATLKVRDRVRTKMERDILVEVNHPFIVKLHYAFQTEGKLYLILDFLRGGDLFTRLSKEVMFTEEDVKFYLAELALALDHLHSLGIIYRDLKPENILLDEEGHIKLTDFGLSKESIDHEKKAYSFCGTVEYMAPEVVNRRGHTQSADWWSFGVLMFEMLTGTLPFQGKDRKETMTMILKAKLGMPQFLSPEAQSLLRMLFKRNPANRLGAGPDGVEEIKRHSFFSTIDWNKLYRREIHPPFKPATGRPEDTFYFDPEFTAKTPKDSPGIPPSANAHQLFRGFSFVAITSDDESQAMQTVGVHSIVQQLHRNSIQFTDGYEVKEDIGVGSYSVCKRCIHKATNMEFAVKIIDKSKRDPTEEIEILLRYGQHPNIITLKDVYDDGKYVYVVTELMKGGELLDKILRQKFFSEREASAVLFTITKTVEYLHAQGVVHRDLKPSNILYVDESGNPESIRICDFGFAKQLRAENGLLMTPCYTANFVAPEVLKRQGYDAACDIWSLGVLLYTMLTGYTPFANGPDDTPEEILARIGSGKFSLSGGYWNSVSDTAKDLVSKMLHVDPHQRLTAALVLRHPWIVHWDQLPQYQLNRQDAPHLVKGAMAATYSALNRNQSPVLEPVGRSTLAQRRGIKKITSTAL", "test": "SPR competition assay, RSK2 pre-incubated with fisetin over immobilized YB-1", "settings": "RSK2 100 nM pre-incubated with fisetin 1 and 10 µM", "experimental": "(§1) Binding experiments were performed using a Biacore T-200 instrument (Uppsala, Sweden) at 25 °C. 60 response units (RU) of the YB-1 human recombinant protein with GST-tag at N-terminal (51–139 aa, 35 kDa including GST tag, from Abnova Corporation, Taiwan) were directly immobilized on the EDC/NHS activated flow cell2 of the CM5 chip (GE certified) in water. The unoccupied sites were blocked with 1 M ethanol amine. The analytes RPS6KA1 (RSK1, 88.5 kDa) and RPS6KA3 (RSK2, 86.3 kDa) recombinant human proteins [full length and HIS-tag] (Life Technologies, Italy) were flown over the chip at variable concentrations in 10 mM sodium acetate buffer (pH 5.0), with flow rate of 5ul/min, at a single analyte concentration. Binding of analyte to the immobilized protein was monitored in real time to obtain on (ka) and off (kd) rates. The equilibrium constant (KD) was calculated from the observed ka and kd or by steady state kinetics as for the small molecules. Stocks were prepared in 100% DMSO, and further dilutions were made in assay buffer containing 10 mM HEPES buffer (pH 7.4), 150 mM NaCl, 3 mM EDTA, 0.05% P20 (polyoxyethylenesorbitan) and 0.1% BSA. Full kinetics analysis was performed at using analyte concentrations 50 nM (or 100 nM without BSA) to 0, run with serial dilutions, 50, 25, 12.5, 6.25, 3.125, 0 nM, and a flow rate of 30 ul/min. […]"}, "[5]": {"biological_target": "ERK1 (Homo sapiens, UniProt P27361)", "sequence (P27361 whole entry)": "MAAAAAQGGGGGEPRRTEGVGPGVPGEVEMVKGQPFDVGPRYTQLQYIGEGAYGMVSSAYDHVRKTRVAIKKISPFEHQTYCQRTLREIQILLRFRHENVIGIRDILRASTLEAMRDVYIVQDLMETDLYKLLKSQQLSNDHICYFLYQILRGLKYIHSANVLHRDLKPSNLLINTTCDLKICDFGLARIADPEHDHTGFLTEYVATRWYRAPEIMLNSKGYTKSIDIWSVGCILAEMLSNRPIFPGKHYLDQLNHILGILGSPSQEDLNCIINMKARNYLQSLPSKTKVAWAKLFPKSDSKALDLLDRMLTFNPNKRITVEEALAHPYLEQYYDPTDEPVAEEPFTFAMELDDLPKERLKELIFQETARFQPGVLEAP", "test": "Radiometric in vitro kinase activity assay", "format": "biochemical"}, "[6]": {"biological_target": "ERK2 (Homo sapiens, UniProt P28482)", "sequence (P28482 whole entry)": "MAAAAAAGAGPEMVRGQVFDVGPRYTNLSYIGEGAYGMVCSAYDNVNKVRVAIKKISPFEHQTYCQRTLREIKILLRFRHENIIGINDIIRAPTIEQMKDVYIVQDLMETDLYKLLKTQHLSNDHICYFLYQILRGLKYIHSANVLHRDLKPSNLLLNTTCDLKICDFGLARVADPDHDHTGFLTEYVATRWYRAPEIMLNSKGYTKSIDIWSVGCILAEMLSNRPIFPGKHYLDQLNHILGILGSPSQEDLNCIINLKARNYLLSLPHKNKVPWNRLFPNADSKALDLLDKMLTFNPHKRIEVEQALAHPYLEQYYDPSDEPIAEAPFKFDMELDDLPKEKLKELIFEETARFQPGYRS", "test": "Radiometric in vitro kinase activity assay", "format": "biochemical"}, "[7]": {"system": "451Lu melanoma cells", "test": "451Lu melanoma xenograft in athymic nude mice", "format": "in vivo", "settings": "day 35; fisetin 1 mg/animal i.p. thrice weekly; vemurafenib 2 mg/animal oral gavage 5 days/week; control 1179.7 mm^3", "experimental": "Athymic (nu/nu) female nude mice (Harlan, Madison, WI), 4–5 weeks old, were housed under pathogen-free conditions, in the University of Wisconsin Animal Resource Facility, with a 12-hour light/12-hour dark schedule and fed an autoclaved diet ad libitum. All animal experiments were approved by and carried out according to Institutional Animal Care and Use Committee guidelines, University of Wisconsin-Madison, protocol # M005212. Briefly, 1 × 10^6 451Lu cells were injected s/c into each flank of 18 mice randomly divided into 3 groups. The first group received intraperitoneal injection of fisetin 40 mg/kg b.wt. (1 mg/animal) thrice weekly, the second group received vemurafenib by oral gavage 80 mg/kg b.wt. (2 mg/animal) dissolved in DMSO, 5 days/week, while the third group served as the DMSO treated control group. Mice weight and tumor volumes were recorded twice weekly. The animals were sacrificed when tumors reached a volume of 1200 mm^3 in the control group. Samples were collected and stored at −80 °C until further analysis."}, "[8]": {"system": "NCI/ADR-Res cells", "test": "MTT cell viability", "format": "cell-based, human", "settings": "NCI/ADR-Res ovarian tumor cells", "experimental": "Cells seeded in 24-well plates were treated at 70% confluence with/without fisetin and/or vemurafenib for 24 hours. Cell viability was determined by MTT assay as described."}, "[9]": {"biological_target": "T3, RSK2 (Homo sapiens, UniProt P51812)", "test": "Radiometric in vitro kinase activity assay (Reaction Biology)", "format": "biochemical", "parameters": "purchased Reaction Biology Corporation (Malvern, PA), contract assay", "settings": "10-dose, 3-fold serial dilution from 100 μM; 30 μM ATP; read-out: IC50 (M), kinase activity inhibition RSK2"}, "[10]": {"biological_target": "T4, RSK3 (Homo sapiens, UniProt Q15349)", "test": "Radiometric in vitro kinase activity assay (Reaction Biology)", "format": "biochemical", "parameters": "purchased Reaction Biology Corporation (Malvern, PA), contract assay", "settings": "10-dose, 3-fold serial dilution from 100 μM; 30 μM ATP; read-out: IC50 (M), kinase activity inhibition RSK3"}, "[11]": {"biological_target": "T3, RSK2", "test": "KINOMEscan competition binding assay", "parameters": "purchased KINOMEscan screening platform (San Diego, CA), contract assay", "experimental": "(§2) The KINOMEscan screening platform (San Diego, CA) was employed to quantitatively measure interactions between fisetin and RSK isoforms. Binding constants (Kds) were calculated by measuring the amount of kinase captured on solid support as a function of the test compound concentration, using the Hill equation. The Hill Slope was set to −1. Curves were fitted using a non-linear least square fit with the Levenberg-Marquardt algorithm."}, "[12]": {"biological_target": "T1, RSK1", "test": "KINOMEscan competition binding assay", "parameters": "RSK1 (Kinase Domain 1-N-terminal): Average Kd (nM): 8100; RSK1 (Kinase Domain 2-C-terminal): Average Kd (nM): 2500; purchased KINOMEscan screening platform (San Diego, CA), contract assay", "settings": "duplicate, top concentration 100 µM", "experimental": "as §2"}, "[13]": {"biological_target": "T4, RSK3", "test": "KINOMEscan competition binding assay", "parameters": "RSK3 (Kinase Domain 1-N-terminal): Average Kd (nM): 5200; RSK3 (Kinase Domain 2-C-terminal): Average Kd (nM): 5800; purchased KINOMEscan screening platform (San Diego, CA), contract assay", "settings": "duplicate, top concentration 100 µM", "experimental": "as §2"}, "[14]": {"biological_target": "T5, YB-1 human recombinant protein (Homo sapiens, UniProt P67809)", "T5 construct": "(51–139 aa, 35 kDa including GST tag, from Abnova Corporation, Taiwan); purchased Abnova Corporation, Taiwan", "T5 sequence (P67809 51-139)": "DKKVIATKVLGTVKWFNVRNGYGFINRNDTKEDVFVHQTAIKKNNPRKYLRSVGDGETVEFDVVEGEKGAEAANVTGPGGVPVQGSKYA", "test": "SPR (Biacore) full kinetics, RSK analytes over immobilized YB-1", "settings": "without BSA; analyte 100-0 nM; 25 °C; read-out: KD for binding to immobilized YB-1", "experimental": "as §1"}}, "note": "pIC50, pKd: −log10 of the molar value. Like-named read-outs stand apart in the source and are kept apart here."}
{"compound": "CC(C)CCN1c2nc(Nc3cc(F)c(O)c(F)c3)ncc2N(C)C(=O)C1C", "note": "(stereo not drawn) [BI-D1870, reference compound]", "values": [{"measurement": "YB-1 expression", "setting": "[1]; A375 cells, in comparison to fisetin (60 μM:24 h)", "result": "modest effect"}]}
{"compound": "Nc1[nH]nc2nnc(-c3c(-c4ccccc4)nn4ccccc34)cc12", "note": "[FR180204, reference compound]", "values": [{"measurement": "RSK phosphorylation at threonine359/serine363", "setting": "[2]", "result": "significant decrease"}]}
{"compound": "O=c1c(O)c(-c2ccc(O)c(O)c2)oc2cc(O)ccc12", "note": "[Fisetin, fisetin]", "values": [{"measurement": "pIC50", "setting": "[3]", "result": 5.42}, {"measurement": "effect on binding of RSK2 to YB-1", "setting": "[4]", "result": "promote its binding to YB-1"}, {"measurement": "pIC50", "setting": "[5]", "result": 5.07}, {"measurement": "pIC50", "setting": "[6]", "result": 5.01}, {"measurement": "average tumor volume", "setting": "[7]", "result": 789.3, "unit": "mm^3"}, {"measurement": "YB-1 phosphorylation and total protein levels", "setting": "[1]; A375 and 451Lu cells, 0–80 µM, 24 h", "result": "dose-dependent decrease in YB-1 phosphorylation"}, {"measurement": "cell viability", "setting": "[8]", "result": "reduced viability"}, {"measurement": "RSK phosphorylation at threonine359/serine363", "setting": "[2]", "result": "significant decrease"}, {"measurement": "IC50", "setting": "[9]", "result": "2.78e-06", "unit": "M"}, {"measurement": "IC50", "setting": "[10]", "result": "8.91e-07", "unit": "M"}, {"measurement": "pKd", "setting": "[11]; C-terminal kinase domain, duplicate, top concentration 100 µM, read-out: Average Kd, RSK2 (Kinase Domain 2-C-terminal)", "result": 5.08}, {"measurement": "pKd", "setting": "[11]; N-terminal kinase domain, duplicate, top concentration 100 µM, read-out: Average Kd, RSK2 (Kinase Domain 1-N-terminal)", "result": 7.30}, {"measurement": "pKd", "setting": "[11]; single replicate curve, C-terminal kinase domain, read-out: Kd, RSK2(Kin.Dom.2-C-terminal), Replicate ID = 1", "result": 5.09}, {"measurement": "pKd", "setting": "[12]; C-terminal kinase domain, read-out: Average Kd, RSK1 (Kinase Domain 2-C-terminal)", "result": 5.60}, {"measurement": "pKd", "setting": "[12]; N-terminal kinase domain, read-out: Average Kd, RSK1 (Kinase Domain 1-N-terminal)", "result": 5.09}, {"measurement": "pKd", "setting": "[13]; C-terminal kinase domain, read-out: Average Kd, RSK3 (Kinase Domain 2-C-terminal)", "result": 5.24}, {"measurement": "pKd", "setting": "[13]; N-terminal kinase domain, read-out: Average Kd, RSK3 (Kinase Domain 1-N-terminal)", "result": 5.28}]}
{"compound": "CCCS(=O)(=O)Nc1ccc(F)c(C(=O)c2c[nH]c3ncc(-c4ccc(Cl)cc4)cc23)c1F", "note": "[vemurafenib, reference compound]", "values": [{"measurement": "average tumor volume", "setting": "[7]", "result": 641.7, "unit": "mm^3"}]}
{"compound": "RSK2: recombinant human protein RPS6KA3, full length, HIS-tag, 86.3 kDa; SPR analyte", "values": [{"measurement": "pKd", "setting": "[14]", "result": 6.27}]}
